Common to all, as to assay: ≥ marks a high value that may be exact or a test limit, other limits are often not marked, values filed in µg/mL are converted to µM
Experiment [1] relates to Escherichia coli DC2.
Experiment [2] concerns Escherichia coli K-12.
Experiment [3] relates to Staphylococcus aureus UAMS-1.
In experiment [4] the test system is Staphylococcus aureus.
The subject of experiment [5] is Aeromonas salmonicida NCIMB 1102.
The subject of experiment [6] is Bacillus subtilis IAM 1026.
The subject of experiment [7] is Escherichia coli JCM 1649.
Experiment [8] has as its system Photobacterium damselae subsp. piscicida Sp 9587.
Experiment [9] concerns Salmonella typhimurium.
For experiment [10], the system named is Shewanella putrefaciens IAM 1509.
Experiment [11] relates to Staphylococcus aureus IAM 1011.
Experiment [12] relates to Vibrio anguillarum NCIMB 829.
In experiment [13] the test system is Vibrio parahaemolyticus Vp+1.
In experiment [14] the test system is Aureobasidium pullulans.
The test system of experiment [15] is Candida albicans ATCC 10231.
Experiment [16] deals with Corynebacterium glutamicum ATCC 13032.
Experiment [17] has as its system Escherichia coli ATCC 25922.
The test system of experiment [18] is Pseudomonas aeruginosa ATCC 27853.
For experiment [19], the system named is Staphylococcus aureus ATCC 9144.
For experiment [20], the system named is Bacillus megaterium.
The subject of experiment [21] is Bacillus subtilis ATCC 23857.
Experiment [22] deals with Micrococcus luteus.
In experiment [23] the test system is Escherichia coli O157:H7 ATCC 43895.
Experiment [24] concerns Escherichia coli SBS 363.
Experiment [25] has as its system Staphylococcus aureus ATCC 29213.

Converted amounts (≈) assume the structure as drawn. “And” between values parts separate entries of the source, which are not always exact repeats. Identical values can stand only once.

The MIC is the lowest concentration that inhibits growth of the organism. The low end stands for a more susceptible organism, the high end for a less susceptible organism. Turning to `CC[C@H](C)[C@H](NC(=O)[C@H](CCCCN)NC(=O)[C@H](CCC(=O)O)NC(=O)[C@H](CCCCN)NC(=O)[C@@H](NC(=O)[C@H](CCCCN)NC(=O)[C@H](CCCN=C(N)N)NC(=O)[C@H](Cc1ccccc1)NC(=O)[C@H](Cc1ccccc1)NC(=O)[C@H](CC(=O)O)NC(=O)CNC(=O)[C@H](CC(C)C)NC(=O)[C@@H](N)CC(C)C)C(C)C)C(=O)NCC(=O)N[C@@H](CCCCN)C(=O)N[C@@H](CCC(=O)O)C(=O)N[C@@H](Cc1ccccc1)C(=O)N[C@@H](CCCCN)C(=O)N[C@@H](CCCN=C(N)N)C(=O)N[C@H](C(=O)N[C@H](C(=O)N[C@@H](CCC(N)=O)C(=O)N[C@@H](CCCN=C(N)N)C(=O)O)C(C)C)[C@@H](C)CC` [LLGDFFRKVKEKIGKEFKRIVQR], the MIC was 2 µM (≈ 5.67 µg/mL) in experiment [1]; not below 40 µM in experiment [2]; not below 160 µM in experiment [3]; > 24 µM and 12 µM in [4].
With `CC[C@H](C)[C@H](NC(=O)[C@H](CCC(N)=O)NC(=O)CNC(=O)[C@H](CC(C)C)NC(=O)[C@@H](NC(=O)[C@H](CCCCN)NC(=O)[C@H](CCCN=C(N)N)NC(=O)[C@H](Cc1c[nH]c2ccccc12)NC(=O)[C@@H](N)CC(N)=O)[C@@H](C)CC)C(=O)N[C@@H](C)C(=O)N[C@@H](CO)C(=O)N[C@H](C(=O)NCC(=O)N[C@@H](C)C(=O)NCC(=O)N[C@@H](CC(C)C)C(=O)N[C@@H](CC(C)C)C(=O)NCC(=O)N[C@@H](CO)C(=O)N[C@@H](CC(C)C)C(=O)N[C@@H](CC(C)C)C(=O)N[C@@H](C)C(=O)NCC(=O)N[C@@H](Cc1ccc(O)cc1)C(=O)N[C@@H](CCC(=O)O)C(=O)O)C(C)C` [NWRKILGQIASVGAGLLGSLLAGYE], the MIC in [5] was found to be 19.3 µM (≈ 50 µg/mL); in [6], 19.3 µM (≈ 50 µg/mL); in experiment [7], 19.3 µM (≈ 50 µg/mL); in [8], 9.66 µM (≈ 25 µg/mL); in experiment [9], 19.3 µM (≈ 50 µg/mL); in [10], 4.83 µM (≈ 12.5 µg/mL). Besides, the MIC in experiment [11], in [12] and in experiment [13] was 19.3 µM (≈ 50 µg/mL) in each case.
On to `CC(C)[C@H](NC(=O)[C@H](CCCCN)NC(=O)[C@H](C)NC(=O)[C@@H](NC(=O)[C@@H](NC(=O)[C@H](CCCN=C(N)N)NC(=O)[C@H](CCCN=C(N)N)NC(=O)[C@H](Cc1c[nH]c2ccccc12)NC(=O)[C@@H](N)Cc1c[nH]c2ccccc12)[C@@H](C)O)C(C)C)C(=O)N[C@@H](CCCN=C(N)N)C(=O)N[C@@H](CC(N)=O)C(=O)N[C@@H](C)C(=O)NCC(=O)N[C@@H](CCCN=C(N)N)C(=O)N[C@@H](CCCCN)C(N)=O` [WWRRTVAKVRNAGRK], for which the MIC is not below 100 µM in experiment [14]; 100 µM (≈ 188 µg/mL) in experiment [15]; 0.4 µM (≈ 0.753 µg/mL) in experiment [16]; 6.3 µM (≈ 11.9 µg/mL) in experiment [17]; 25 µM (≈ 47.1 µg/mL) in experiment [18]; 12.5 µM (≈ 23.5 µg/mL) in [19].
`C[C@H](NC(=O)[C@H](CCCCN)NC(=O)[C@H](Cc1c[nH]c2ccccc12)NC(=O)CNC(=O)CNC(=O)[C@H](Cc1c[nH]c2ccccc12)NC(=O)[C@H](CCCCN)NC(=O)[C@H](CCCCN)NC(=O)CN)C(=O)N[C@@H](CCCCN)C(N)=O` [GKKWGGWKAK]: the MIC is not below 54.6 µM in [14]; 3.41 µM (≈ 3.9 µg/mL) in experiment [20]; not below 109 µM in [21]; 109 µM (≈ 125 µg/mL) in [15]; 27.3 µM (≈ 31.3 µg/mL) in [16]; more than 218 µM in experiment [17]. Besides, the minimum inhibitory concentration (MIC) in [22] is not below 218 µM; in experiment [18], more than 218 µM; in experiment [19], not below 218 µM.
As for `CC(C)C[C@H](NC(=O)[C@H](Cc1cnc[nH]1)NC(=O)CNC(=O)[C@H](C)NC(=O)[C@H](C)NC(=O)[C@@H](NC(=O)[C@H](Cc1ccccc1)NC(=O)[C@H](C)NC(=O)[C@H](CC(C)C)NC(=O)[C@H](CCCCN)NC(=O)[C@H](CCCCN)NC(=O)[C@H](CC(C)C)NC(=O)[C@H](CC(C)C)NC(=O)[C@H](CCC(=O)O)NC(=O)[C@H](CCCN=C(N)N)NC(=O)[C@H](Cc1c[nH]c2ccccc12)NC(=O)[C@@H](N)Cc1c[nH]c2ccccc12)[C@@H](C)O)C(=O)NCC(=O)N[C@@H](CO)C(=O)N[C@H](C(=O)N[C@@H](CC(C)C)C(=O)N[C@@H](C)C(=O)N[C@@H](C)C(=O)N[C@@H](CCCCN)C(=O)N[C@@H](CCC(N)=O)C(=O)N[C@@H](CO)C(=O)NCC(=O)N[C@@H](Cc1c[nH]c2ccccc12)C(=O)O)C(C)C` [WWRELLKKLAFTAAGHLGSVLAAKQSGW], the MIC in [5] was 8 µM (≈ 25 µg/mL); in experiment [6], 8 µM (≈ 25 µg/mL); in experiment [7], 16 µM (≈ 50 µg/mL); in experiment [8] it was 8 µM (≈ 25 µg/mL); in experiment [9] it was 16 µM (≈ 50 µg/mL); in experiment [10], 2 µM (≈ 6.25 µg/mL). Also, the values for the MIC in experiment [11], in experiment [12] and in [13] were 4 µM (≈ 12.5 µg/mL), 16 µM (≈ 50 µg/mL) and 16 µM (≈ 50 µg/mL), respectively.
With `CC(C)C[C@H](NC(=O)[C@H](C)N)C(=O)N[C@@H](Cc1c[nH]c2ccccc12)C(=O)N[C@@H](CCCCN)C(=O)N[C@H](C(=O)N[C@@H](CC(C)C)C(=O)N[C@@H](CC(C)C)C(=O)N[C@@H](CCCCN)C(=O)N[C@@H](CCCCN)C(=O)N[C@H](C(=O)N[C@@H](CC(C)C)C(=O)N[C@@H](CCCCN)C(=O)N[C@@H](C)C(=O)N[C@@H](C)C(=O)N[C@@H](C)C(=O)N[C@@H](CCCCN)C(=O)N[C@@H](C)C(=O)N[C@@H](C)C(=O)N[C@@H](CC(C)C)C(=O)N[C@@H](CCCCN)C(=O)N[C@@H](C)C(=O)N[C@H](C(=O)N[C@@H](CC(C)C)C(=O)N[C@H](C(=O)NCC(=O)N[C@@H](C)C(=O)N[C@@H](CC(N)=O)C(=O)N[C@@H](C)C(N)=O)C(C)C)C(C)C)C(C)C)[C@@H](C)O` [ALWKTLLKKVLKAAAKAALKAVLVGANA], the MIC in experiment [23] is 8 µM (≈ 22.9 µg/mL).
Regarding `C[C@H](NC(=O)[C@H](CCCCN)NC(=O)[C@H](Cc1c[nH]c2ccccc12)NC(=O)CNC(=O)CNC(=O)[C@@H]1CCCN1C(=O)[C@H](CCCCN)NC(=O)[C@H](CCCCN)NC(=O)CN)C(=O)N[C@@H](CCCCN)C(N)=O` [GKKPGGWKAK], the MIC in experiment [14] was not below 237 µM; in experiment [20], not below 237 µM; in [21], not below 237 µM; in experiment [15], more than 237 µM; in experiment [16] it was not below 237 µM; in [17] it was more than 237 µM. The MIC is not below 237 µM in experiment [22], more than 237 µM in experiment [18] and not below 237 µM in [19].
Consider `CC(C)C[C@H](NC(=O)CN)C(=O)N[C@@H](Cc1ccccc1)C(=O)N[C@@H](CCCCN)C(=O)NCC(=O)N[C@@H](CCCCN)C(=O)N[C@@H](CCCCN)C(=O)N[C@@H](CCCCN)C(=O)N[C@@H](CC(N)=O)C(=O)N[C@@H](CCCCN)C(=O)N[C@@H](CCCCN)C(=O)N[C@H](C(=O)N[C@@H](CCCCN)C(N)=O)[C@@H](C)O` [GLFKGKKKNKKTK], for which the MIC in experiment [17] is more than 250 µM; in experiment [24], not below 250 µM; in experiment [25], more than 250 µM.

These data come from DBAASP.
